The numbers were not newly measured in patent US6514710B1, “Method of using cyclic peptides to inhibit binding to urokinase-type plasminogen activator receptor” (Angstrom Pharmaceuticals, Inc., priority 1996, dated 2003), which cites them from elsewhere.

Like-named read-outs stand apart in the source and are kept apart here.

In data set [1] the target is T1, uPAR (Homo sapiens, UniProt Q03405). The note with it: read-out: IC50, prevention of uPA binding to uPAR.
Data set [2] deals with murine Lewis Lung carcinoma. The note with it: murine Lewis Lung carcinoma in mice; peptides derived from the mouse sequence.
Data set [3] has as its target T1, uPAR. The note with it: read-out: IC50, inhibition of the binding of uPA to uPAR.

T1 sequence (Q03405 23-305): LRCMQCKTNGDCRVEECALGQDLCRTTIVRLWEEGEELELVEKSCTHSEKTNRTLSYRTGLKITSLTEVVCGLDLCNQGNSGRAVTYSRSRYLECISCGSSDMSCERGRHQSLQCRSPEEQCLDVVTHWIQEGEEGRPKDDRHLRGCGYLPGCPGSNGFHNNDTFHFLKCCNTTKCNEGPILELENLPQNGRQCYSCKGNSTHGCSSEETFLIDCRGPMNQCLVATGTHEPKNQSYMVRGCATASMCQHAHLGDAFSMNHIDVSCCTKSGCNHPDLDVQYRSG

For orientation: IC50 means the concentration that inhibits the measured activity by half. Turning to “[Ala^19]uPA-(12-32) [[Ala^19]uPA-(12-32) open chain form]”, the IC50 at uPAR [1] is 100 nM.
Regarding “[Ala^19]uPA-(12-32) [[Ala^19]uPA-(12-32) oxidized cyclic form]”, on uPAR [1], the IC50 was 40 nM.
Regarding “corresponding linear shorter peptide (20-30): linear shorter peptide (20-30) corresponding to the mouse sequence (CVSYKYFSRIR; UniProt P06869 40-50, looked up, fragment)”, the “inhibition of spontaneous metastasis” value in data set [2] was “had no effect”.
“linear peptide 20-30: linear peptide of uPA residues 20-30 (VSNKYFSNIHW; UniProt P00749 40-50, looked up, fragment)”: the IC50 with uPAR [3] was 1000 nM.
“peptide 17-34: longer peptide of uPA residues 17-34 (GTCVSNKYFSNIHWCNCP; UniProt P00749 37-54, looked up, fragment)”: in the data set with uPAR [3], the IC50 is 100 nM.
“peptide (17-34) derived from the mouse sequence: corresponding longer peptide (17-34) derived from the mouse uPA sequence (GGVCVSYKYFSRIRRCSC; UniProt P06869 37-54, looked up, fragment)”: the “inhibition of spontaneous metastasis” value in data set [2] is on record as “inhibited spontaneous metastasis”.
